≈ marks a conversion by molar mass, not a printed value.
Experiments:
A549 cell line = assay: In vitro anticancer effect against A549 cell line (MTT assay); format: cell-based; conditions: Homo sapiens
Protocol: (§1) The A549 cells described in section 1 of Experimental Materials were placed in a 24-well culture plate at 1×10^4 cells/well, followed by cultivation in DMEM supplemented with 10% FBS at 37° C. and 5% CO2. The A549 cells in the wells were respectively treated with the free ganetespib test solutions and the CHC-ganetespib test solutions. Specifically, 200 μL of a respective test solution was added into a corresponding well containing the A549 cells. The A549 cells which were not treated with the free ganetespib test solutions and the CHC-ganetespib test solutions served as a normal control. After the treatment, cultivation was conducted for 48 hours at 37° C. and 5% CO2.
(§2) The respective resulting culture was subjected to washing twice with PBS after removal of the liquid in the well, and was subjected to determination of cell viability by virtue of the 3-(4,5-dimethylthiazol-2-yl)-2,5-diphenyltetrazoli-umbromide (MTT) assay. Specifically, a suitable amount of a MTT solution (having a MTT concentration of 1.9 mg/mL) was added to the respective culture, followed by incubation for 4 hours. The liquid in the well was removed, and dimethylsulfoxide (DMSO) was added into the well to dissolve formazan dye. Absorbance of the mixture in the well at 450 nm (0D450) was measured using a microplate reader (Tecan Sunrise, Switzerland). The cell viability (%) was calculated by substituting the absorbance into the following equation (2): D=(E/F)×100 (2) • D=cell viability (%) • E=OD450 of respective culture • F=OD450 of normal control
(§3) IC50 (half maximal inhibitory concentration) of the free ganetespib and the CHC-ganetespib particle agasint A549 cell line was determined based on the free ganetespib concentrations and the CHC-ganetespib particle concentrations, respectively, as well as the cell viability resulting from such concentrations.

H1299 cell line = assay: In vitro anticancer effect against H1299 cell line (MTT assay); format: cell-based; conditions: Homo sapiens, NCI-H1299
Protocol: as §1, §2, §3
The in vitro anticancer effect of the free ganetespib and the CHC-ganetespib particle agasint H1299 cell line was determined generally according to the method described in section B of this example, except that the H1299 cells described in section 1 of Experimental Materials were placed in a 24-well culture plate at 5×10^4 cells/well, followed by cultivation in RPMI medium supplemented with 10% FBS.

IC50 (A549 cell line; A549, 48 hours, MTT): 8.8 ng/mL (≈ 0.0241 µM)
IC50 (H1299 cell line; H1299, 48 hours, MTT): 0.0103 µg/mL (≈ 0.0283 µM)
SMILES: CC(C)c1cc(-c2nnc(O)n2-c2ccc3c(ccn3C)c2)c(O)cc1O [Free ganetespib, 4-[5-hydroxy-4-(1-methyl-1H-indol-5-yl)-4H-1,2,4-triazol-3-yl]-6-(propan-2-yl)benzene-1,3-diol]
viability at 0.0015625 µg/mL (A549 cell line; A549, 1.5625 ng/mL, 48 hours): 98%
viability at 0.003125 µg/mL (A549 cell line; A549, 3.125 ng/mL, 48 hours): 70%
viability at 0.00625 µg/mL (A549 cell line; A549, 6.25 ng/mL, 48 hours): 52%
viability at 0.0125 µg/mL (A549 cell line; A549, 12.5 ng/mL, 48 hours): 40%
viability at 0.025 µg/mL (A549 cell line; A549, 25 ng/mL, 48 hours): 30%
viability at 0.0015625 µg/mL (H1299 cell line; H1299, 1.5625 ng/mL, 48 hours): 93%
viability at 0.003125 µg/mL (H1299 cell line; H1299, 3.125 ng/mL, 48 hours): 85%
viability at 0.00625 µg/mL (H1299 cell line; H1299, 6.25 ng/mL, 48 hours): 55%
viability at 0.01 µg/mL (H1299 cell line; H1299, 10 ng/mL, 48 hours): 48%
viability at 0.02 µg/mL (H1299 cell line; H1299, 20 ng/mL, 48 hours): 23%

From US11013720B2, “Ganetespib-containing particle, pharmaceutical composition comprising the same, and their use in anticancer treatment” (NATIONAL CHIAO TUNG UNIVERSITY, priority 2019, dated 2021)
